{"source": "patent US4146631A", "about": "“Benzamide derivatives” (May & Baker Limited, priority 1976, dated 1979)", "tested_on": "passive cutaneous anaphylactic (PCA) reaction", "assay": "Passive cutaneous anaphylactic (PCA) reaction, reagin-allergen combination, in rats", "assay_type": "in vivo", "details": "Rattus norvegicus; for ED100: intravenous, just before injection of allergen, read-out: ED100 (intravenous dose which produces 100% inhibition of the PCA reaction); for inhibition in vivo at 100 mg/kg: oral dose of 100 mg/kg; for inhibition in vivo at 100 mg/kg / ED50: thirty minutes before intravenous allergen; for ED50: oral, read-out: ED50 (oral dose which produces 50% inhibition of the PCA reaction)", "text": "In pharmacological tests the benzamide derivatives of general formula I suppress the passive cutaneous anaphylactic (PCA) reaction resulting from combination of tissue-fixed reaginic antibodies with the appropriate antigenic material (termed reagin-allergen combination) and carried out in an essentially similar manner to that described by Ogilvie [Nature (Lond.), (1964), 204, 91-92; Immunology, (1967), 12, 112-131]. In the method used to test these compounds sera were obtained from rats which had been infected with larvae of the nematode parasite Nippostrongylus brasiliensis; as a result of the parasitic infestation reaginic antibodies are elaborated in the host mammal and are found in sera removed from such animals. Other, non-infected, rats received intradermal injections of appropriate dilutions of such sera and were then given the allergenic material along with Evans' blue dye intravenously forty-eight hours later.\nThe allergenic material consisted of supernatant fluid after centrifugation of homogenates of adult Nippostrongylus brasiliensis worms which had been macerated in Tyrode's solution. The sites of PCA reactions were visualised by the effusion of Evan's blue dye from the circulation into those areas as a result of increased capillary permeability caused by the release of biologically-active substances from cells where reagin-allergen combination had occurred. The new compounds when given intravenously to the rats just before injection of allergen, or administered orally thirty minutes before intravenous injection of allergen, were able to prevent the development of the PCA reaction, as shown below in Table I, Table II and Table III.", "data": [{"smiles": "O=Cc1cccc(C(=O)Nc2nnn[nH]2)c1O", "note": "[CH, 3-formyl-2-hydroxy-N-(tetrazol-5-yl)benzamide]", "values": [{"measurement": "ED100", "result": 0.5, "unit": "mg/kg"}, {"measurement": "inhibition in vivo at 100 mg/kg", "result": 75, "unit": "%"}, {"measurement": "ED50", "result": 5.3, "unit": "mg/kg"}]}, {"smiles": "Cc1cc(C#N)c(O)c(C(=O)Nc2nnn[nH]2)c1", "note": "[Compound CL, 3-cyano-2-hydroxy-5-methyl-N-(tetrazol-5-yl)benzamide]", "values": [{"measurement": "ED100", "result": 2, "unit": "mg/kg"}, {"measurement": "inhibition in vivo at 100 mg/kg", "result": 26, "unit": "%"}]}, {"smiles": "O=Cc1ccc(O)c(C(=O)Nc2nnn[nH]2)c1", "note": "[BL, 5-formyl-2-hydroxy-N-(tetrazol-5-yl)benzamide]", "values": [{"measurement": "ED100", "result": 0.5, "unit": "mg/kg"}, {"measurement": "inhibition in vivo at 100 mg/kg", "result": 25, "unit": "%"}]}, {"smiles": "CN(C)c1cccc(C(=O)Nc2nnn[nH]2)c1O", "note": "[CP, 2-hydroxy-3-dimethylamino-N-(tetrazol-5-yl)benzamide]", "values": [{"measurement": "ED100", "result": 2, "unit": "mg/kg"}, {"measurement": "inhibition in vivo at 100 mg/kg", "result": 68, "unit": "%"}, {"measurement": "ED50", "result": 26, "unit": "mg/kg"}]}, {"smiles": "CC(=O)Nc1ccc(O)c(C(=O)Nc2nnn[nH]2)c1", "note": "[AZ, 5-acetylamino-2-hydroxy-N-(tetrazol-5-yl)benzamide]", "values": [{"measurement": "ED100", "result": 10, "unit": "mg/kg"}]}, {"smiles": "O=C(Nc1nnn[nH]1)c1cc(C(F)(F)F)ccc1O", "note": "[Compound BV, 5-trifluoromethyl-2-hydroxy-N-(tetrazol-5-yl)benzamide]", "values": [{"measurement": "ED100", "result": 2, "unit": "mg/kg"}, {"measurement": "inhibition in vivo at 100 mg/kg", "result": 90, "unit": "%"}, {"measurement": "ED50", "result": 37, "unit": "mg/kg"}]}, {"smiles": "O=C(Nc1ccc(O)c(C(=O)Nc2nnn[nH]2)c1)OCc1ccccc1", "note": "[BQ, 5-benzyloxycarbonylamino-2-hydroxy-N-(tetrazol-5-yl)benzamide]", "values": [{"measurement": "ED100", "result": 5, "unit": "mg/kg"}]}, {"smiles": "O=C(Nc1nnn[nH]1)c1ccc(F)cc1O", "note": "[BD, 4-fluoro-2-hydroxy-N-(tetrazol-5-yl)benzamide]", "values": [{"measurement": "ED100", "result": 10, "unit": "mg/kg"}, {"measurement": "inhibition in vivo at 100 mg/kg", "result": 75, "unit": "%"}]}, {"smiles": "N#Cc1ccc(O)c(C(=O)Nc2nnn[nH]2)c1", "note": "[CK, 5-cyano-2-hydroxy-N-(tetrazol-5-yl)benzamide]", "values": [{"measurement": "ED100", "result": 0.2, "unit": "mg/kg"}, {"measurement": "inhibition in vivo at 100 mg/kg", "result": 89, "unit": "%"}, {"measurement": "ED50", "result": 50, "unit": "mg/kg"}]}, {"smiles": "Cc1cc(C=O)c(O)c(C(=O)Nc2nnn[nH]2)c1", "note": "[CI, 3-formyl-2-hydroxy-5-methyl-N-(tetrazol-5-yl)benzamide]", "values": [{"measurement": "ED100", "result": 2, "unit": "mg/kg"}, {"measurement": "inhibition in vivo at 100 mg/kg", "result": 70, "unit": "%"}, {"measurement": "ED50", "result": 5.4, "unit": "mg/kg"}]}, {"smiles": "O=C(Nc1nnn[nH]1)c1ccc(O)cc1O", "note": "[AJ, 2,4-dihydroxy-N-(tetrazol-5-yl)benzamide]", "values": [{"measurement": "ED100", "result": 10, "unit": "mg/kg"}, {"measurement": "inhibition in vivo at 100 mg/kg", "result": 38, "unit": "%"}]}, {"smiles": "CC(C)N(C)S(=O)(=O)c1ccc(O)c(C(=O)Nc2nnn[nH]2)c1", "note": "[AC, 2-hydroxy-5-(N-methyl-N-isopropylsulphamoyl)-N-(tetrazol-5-yl)benzamide]", "values": [{"measurement": "ED100", "result": 5, "unit": "mg/kg"}, {"measurement": "inhibition in vivo at 100 mg/kg", "result": 20, "unit": "%"}]}, {"smiles": "O=C(Nc1nnn[nH]1)c1cccc(Cl)c1O", "note": "[AM, 3-chloro-2-hydroxy-N-(tetrazol-5-yl)benzamide]", "values": [{"measurement": "ED100", "result": 5, "unit": "mg/kg"}, {"measurement": "inhibition in vivo at 100 mg/kg", "result": 82, "unit": "%"}, {"measurement": "ED50", "result": 85, "unit": "mg/kg"}]}, {"smiles": "CC(=O)c1cc(Br)cc(C(=O)Nc2nnn[nH]2)c1O", "note": "[CB, 3-acetyl-5-bromo-2-hydroxy-N-(tetrazol-5-yl)benzamide]", "values": [{"measurement": "ED100", "result": 2, "unit": "mg/kg"}, {"measurement": "inhibition in vivo at 100 mg/kg", "result": 66, "unit": "%"}, {"measurement": "ED50", "result": 64, "unit": "mg/kg"}]}, {"smiles": "Cc1ccc(C(=O)Nc2nnn[nH]2)c(O)c1", "note": "[AK, 2-hydroxy-4-methyl-N-(tetrazol-5-yl)benzamide]", "values": [{"measurement": "ED100", "result": 10, "unit": "mg/kg"}, {"measurement": "inhibition in vivo at 100 mg/kg", "result": 32, "unit": "%"}]}, {"smiles": "CN(C)S(=O)(=O)c1ccc(O)c(C(=O)Nc2nnn[nH]2)c1", "note": "[AB, 2-hydroxy-5-(N,N-dimethylsulphamoyl)-N-(tetrazol-5-yl)benzamide]", "values": [{"measurement": "ED100", "result": 2, "unit": "mg/kg"}]}, {"smiles": "CS(=O)(=O)c1ccc(O)c(C(=O)Nc2nnn[nH]2)c1", "note": "[BO, 2-hydroxy-5-methylsulphonyl-N-(tetrazol-5-yl)benzamide]", "values": [{"measurement": "ED100", "result": 5, "unit": "mg/kg"}, {"measurement": "inhibition in vivo at 100 mg/kg", "result": 63, "unit": "%"}]}, {"smiles": "O=C(Nc1nnn[nH]1)c1ccc([N+](=O)[O-])cc1O", "note": "[Compound AA, 2-hydroxy-4-nitro-N-(tetrazol-5-yl)benzamide]", "values": [{"measurement": "ED100", "result": 10, "unit": "mg/kg"}, {"measurement": "inhibition in vivo at 100 mg/kg", "result": 18, "unit": "%"}]}, {"smiles": "CSc1ccc(O)c(C(=O)Nc2nnn[nH]2)c1", "note": "[BF, 2-hydroxy-5-methylthio-N-(tetrazol-5-yl)benzamide]", "values": [{"measurement": "ED100", "result": 0.5, "unit": "mg/kg"}]}, {"smiles": "Cc1cc(C(=O)Nc2nnn[nH]2)c(O)c(-c2nnn[nH]2)c1", "note": "[CM, 2-hydroxy-5-methyl-3,N-bis(tetrazol-5-yl)benzamide]", "values": [{"measurement": "ED100", "result": 0.05, "unit": "mg/kg"}, {"measurement": "inhibition in vivo at 100 mg/kg", "result": 64, "unit": "%"}]}, {"smiles": "CSc1ccc(C(=O)Nc2nnn[nH]2)c(O)c1", "note": "[BN, 2-hydroxy-4-methylthio-N-(tetrazol-5-yl)benzamide]", "values": [{"measurement": "ED100", "result": 10, "unit": "mg/kg"}, {"measurement": "inhibition in vivo at 100 mg/kg", "result": 8, "unit": "%"}]}, {"smiles": "O=C(Nc1nnn[nH]1)c1cc(O)ccc1O", "note": "[AF, 2,5-dihydroxy-N-(tetrazol-5-yl)benzamide]", "values": [{"measurement": "ED100", "result": 1, "unit": "mg/kg"}]}, {"smiles": "O=C(Nc1nnn[nH]1)c1cc(Br)cc(Br)c1O", "note": "[AY, 3,5-dibromo-2-hydroxy-N-(tetrazol-5-yl)benzamide]", "values": [{"measurement": "ED100", "result": 5, "unit": "mg/kg"}, {"measurement": "inhibition in vivo at 100 mg/kg", "result": 65, "unit": "%"}]}, {"smiles": "CS(=O)(=O)c1cccc(C(=O)Nc2nnn[nH]2)c1O", "note": "[BJ, 2-hydroxy-3-methylsulphonyl-N-(tetrazol-5-yl)benzamide]", "values": [{"measurement": "ED100", "result": 20, "unit": "mg/kg"}, {"measurement": "inhibition in vivo at 100 mg/kg", "result": 64, "unit": "%"}]}, {"smiles": "Nc1ccc(O)c(C(=O)Nc2nnn[nH]2)c1", "note": "[Compound BS, 5-amino-2-hydroxy-N-(tetrazol-5-yl)benzamide]", "values": [{"measurement": "ED100", "result": 5, "unit": "mg/kg"}, {"measurement": "inhibition in vivo at 100 mg/kg", "result": 35, "unit": "%"}]}, {"smiles": "CC(=O)c1cc(S(N)(=O)=O)cc(C(=O)Nc2nnn[nH]2)c1O", "note": "[Compound BU, 3-acetyl-2-hydroxy-5-sulphamoyl-N-(tetrazol-5-yl)benzamide]", "values": [{"measurement": "ED100", "result": 0.5, "unit": "mg/kg"}, {"measurement": "inhibition in vivo at 100 mg/kg", "result": 86, "unit": "%"}]}, {"smiles": "CC(=O)c1cc(F)cc(C(=O)Nc2nnn[nH]2)c1O", "note": "[CC, 3-acetyl-5-fluoro-2-hydroxy-N-(tetrazol-5-yl)benzamide]", "values": [{"measurement": "ED100", "result": 0.2, "unit": "mg/kg"}, {"measurement": "inhibition in vivo at 100 mg/kg", "result": 62, "unit": "%"}, {"measurement": "ED50", "result": 1.9, "unit": "mg/kg"}]}, {"smiles": "CC(C)(C)NC(=O)c1cccc(C(=O)Nc2nnn[nH]2)c1O", "note": "[CO, 3-tert-butylcarbamoyl-2-hydroxy-N-(tetrazol-5-yl)benzamide]", "values": [{"measurement": "ED100", "result": 5, "unit": "mg/kg"}, {"measurement": "inhibition in vivo at 100 mg/kg", "result": 26, "unit": "%"}]}, {"smiles": "CS(=O)(=O)c1cc(C(=O)Nc2nnn[nH]2)c(O)c(S(C)(=O)=O)c1", "note": "[BK, 2-hydroxy-3,5-bis(methylsulphonyl)-N-(tetrazol-5-yl)benzamide]", "values": [{"measurement": "ED100", "result": 10, "unit": "mg/kg"}, {"measurement": "inhibition in vivo at 100 mg/kg", "result": 29, "unit": "%"}]}, {"smiles": "O=C(Nc1nnn[nH]1)c1cc(Br)ccc1O", "note": "[BM, 5-bromo-2-hydroxy-N-(tetrazol-5-yl)benzamide]", "values": [{"measurement": "ED100", "result": 5, "unit": "mg/kg"}, {"measurement": "inhibition in vivo at 100 mg/kg", "result": 46, "unit": "%"}, {"measurement": "ED50", "result": 65, "unit": "mg/kg"}]}, {"smiles": "O=C(Nc1ccc(C(=O)Nc2nnn[nH]2)c(O)c1)OCc1ccccc1", "note": "[BR, 4-benzyloxycarbonylamino-2-hydroxy-N-(tetrazol-5-yl)benzamide]", "values": [{"measurement": "ED100", "result": 0.5, "unit": "mg/kg"}]}, {"smiles": "O=C(O)c1cccc(C(=O)Nc2nn[nH]n2)c1O", "note": "[CN, 3-N-(tetrazol-5-yl)carbamoylsalicylic acid]", "values": [{"measurement": "ED100", "result": 1, "unit": "mg/kg"}, {"measurement": "inhibition in vivo at 100 mg/kg", "result": 43, "unit": "%"}, {"measurement": "ED50", "result": 20, "unit": "mg/kg"}]}, {"smiles": "COc1ccc(C(=O)Nc2nnn[nH]2)c(O)c1", "note": "[AT, 2-hydroxy-4-methoxy-N-(tetrazol-5-yl)benzamide]", "values": [{"measurement": "ED100", "result": 5, "unit": "mg/kg"}, {"measurement": "inhibition in vivo at 100 mg/kg", "result": 8, "unit": "%"}]}]}
